{
  "source": "paper PMC7377474",
  "about": "“Preclinical characterization of CPL302-253, a selective inhibitor of PI3Kδ, as the candidate for the inhalatory treatment and prevention of Asthma” (PLoS ONE, 2020)",
  "key": {"[1]": {"system": "co-culture of dermal fibroblasts and keratinocytes", "assay": "BioMAP profiling, KF3CT system", "format": "cell-based, human", "method": "BioMap Profiling study was performed by DiscovereX according to service provider’s protocol. In brief cultures or co-cultures of human primary cells were treated with sets of stimulators specific for cell subsets. […] The assays included positive and negative controls as well as vehicle control. The expression of biomarkers specific for each system was measured by ELISA and other techniques."}, "[2]": {"system": "CD19 B cells and PBMC stimulated with αIgM and TCR ligands", "assay": "BioMAP profiling, BT system", "format": "cell-based, human", "protocol": "BioMap Profiling study was performed by DiscovereX according to service provider’s protocol. In brief cultures or co-cultures of human primary cells were treated with sets of stimulators specific for cell subsets. […] The expression of biomarkers specific for each system was measured by ELISA and other techniques. The results are shown as log-transformed ratio of the biomarker readouts for the drug-treated sample to vehicle controls. The grey area parallel to the x-axis indicates the 95% significance region calculated based on historical vehicle controls. […]"}, "[3]": {"system": "GPCR, transporters, ion channels, nuclear receptors, kinases and non-kinase enzymes", "assay": "SafetyScan44 panel, overall", "format": "cell-based", "conditions": "10 μM; negative if not exceeding 70% of the control", "protocol": "(§1) SafetyScan44 assay was performed by DiscoverX according to service provider’s protocol."}, "ADORA2A": {"biological_target": "T1, ADORA2A (Homo sapiens, UniProt P29274)", "T1 construct": "purchased DiscoverX (Eurofins) SafetyScan44", "T1 sequence (P29274 whole entry)": "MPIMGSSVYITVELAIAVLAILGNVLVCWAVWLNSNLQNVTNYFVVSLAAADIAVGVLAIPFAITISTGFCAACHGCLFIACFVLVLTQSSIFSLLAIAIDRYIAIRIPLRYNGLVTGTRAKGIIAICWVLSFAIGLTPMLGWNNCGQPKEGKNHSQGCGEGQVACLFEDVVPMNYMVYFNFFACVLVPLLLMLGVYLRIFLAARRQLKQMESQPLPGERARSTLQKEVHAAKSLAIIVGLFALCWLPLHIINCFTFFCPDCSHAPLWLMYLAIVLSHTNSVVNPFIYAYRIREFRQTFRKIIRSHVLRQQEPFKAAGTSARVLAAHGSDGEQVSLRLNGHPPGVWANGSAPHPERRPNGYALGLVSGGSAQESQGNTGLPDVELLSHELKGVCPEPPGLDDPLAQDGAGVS", "assay": "SafetyScan44", "format": "cell-based", "conditions": "10 μM", "protocol": "as §1"}, "INSR": {"biological_target": "T2, INSR (Homo sapiens, UniProt P06213)", "T2 construct": "purchased DiscoverX (Eurofins) SafetyScan44", "assay": "SafetyScan44", "format": "cell-based", "conditions": "10 μM; Inhibitor mode", "protocol": "as §1"}, "DAT": {"biological_target": "T3, DAT (Homo sapiens, UniProt Q01959)", "T3 construct": "purchased DiscoverX (Eurofins) SafetyScan44", "assay": "SafetyScan44", "format": "cell-based", "conditions": "10 μM; Blocker mode", "protocol": "as §1"}, "HTR1B": {"biological_target": "T4, HTR1B (Homo sapiens, UniProt P28222)", "T4 construct": "purchased DiscoverX (Eurofins) SafetyScan44", "assay": "SafetyScan44", "format": "cell-based", "conditions": "10 μM", "protocol": "as §1"}, "GABAA": {"system": "GABAA", "assay": "SafetyScan44", "format": "cell-based", "conditions": "10 μM", "protocol": "as §1"}, "ROCK1": {"biological_target": "T5, ROCK1 (Homo sapiens, UniProt Q13464)", "T5 construct": "purchased DiscoverX (Eurofins) SafetyScan44", "assay": "SafetyScan44", "format": "cell-based", "conditions": "10 μM; Inhibitor mode", "protocol": "as §1"}, "CAV1.2": {"biological_target": "T6, CAV1.2 (Homo sapiens, UniProt Q13936)", "T6 construct": "purchased DiscoverX (Eurofins) SafetyScan44", "assay": "SafetyScan44", "format": "cell-based", "conditions": "10 μM; Blocker mode", "protocol": "as §1"}, "NET": {"biological_target": "T7, NET (Homo sapiens, UniProt P23975)", "T7 construct": "purchased DiscoverX (Eurofins) SafetyScan44", "assay": "SafetyScan44", "format": "cell-based", "conditions": "10 μM; Blocker mode", "protocol": "as §1"}, "CHRM1": {"biological_target": "T8, CHRM1 (Homo sapiens, UniProt P11229)", "T8 construct": "purchased DiscoverX (Eurofins) SafetyScan44", "T8 sequence (P11229 whole entry)": "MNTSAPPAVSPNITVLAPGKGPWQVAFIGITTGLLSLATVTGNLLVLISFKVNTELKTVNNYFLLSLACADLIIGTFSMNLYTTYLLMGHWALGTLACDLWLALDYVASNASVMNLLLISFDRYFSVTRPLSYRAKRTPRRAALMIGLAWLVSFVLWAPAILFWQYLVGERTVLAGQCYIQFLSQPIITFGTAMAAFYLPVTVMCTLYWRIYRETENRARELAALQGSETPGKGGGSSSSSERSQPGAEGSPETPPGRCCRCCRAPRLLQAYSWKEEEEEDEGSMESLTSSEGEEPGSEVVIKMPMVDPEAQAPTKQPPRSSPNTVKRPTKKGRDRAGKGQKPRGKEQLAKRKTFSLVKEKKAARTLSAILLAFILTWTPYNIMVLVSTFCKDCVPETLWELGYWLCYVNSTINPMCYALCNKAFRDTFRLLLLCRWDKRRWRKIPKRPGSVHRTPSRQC", "assay": "SafetyScan44", "format": "cell-based", "conditions": "10 μM", "protocol": "as §1"}, "LCK": {"biological_target": "T9, LCK (Homo sapiens, UniProt P06239)", "T9 construct": "purchased DiscoverX (Eurofins) SafetyScan44", "assay": "SafetyScan44", "format": "cell-based", "conditions": "10 μM; Inhibitor mode", "protocol": "as §1"}, "VEGFR2": {"biological_target": "T10, VEGFR2 (Homo sapiens, UniProt P35968)", "T10 construct": "purchased DiscoverX (Eurofins) SafetyScan44", "assay": "SafetyScan44", "format": "cell-based", "conditions": "10 μM; Inhibitor mode", "protocol": "as §1"}, "CNR2": {"biological_target": "T11, CNR2 (Homo sapiens, UniProt P34972)", "T11 construct": "purchased DiscoverX (Eurofins) SafetyScan44", "T11 sequence (P34972 whole entry)": "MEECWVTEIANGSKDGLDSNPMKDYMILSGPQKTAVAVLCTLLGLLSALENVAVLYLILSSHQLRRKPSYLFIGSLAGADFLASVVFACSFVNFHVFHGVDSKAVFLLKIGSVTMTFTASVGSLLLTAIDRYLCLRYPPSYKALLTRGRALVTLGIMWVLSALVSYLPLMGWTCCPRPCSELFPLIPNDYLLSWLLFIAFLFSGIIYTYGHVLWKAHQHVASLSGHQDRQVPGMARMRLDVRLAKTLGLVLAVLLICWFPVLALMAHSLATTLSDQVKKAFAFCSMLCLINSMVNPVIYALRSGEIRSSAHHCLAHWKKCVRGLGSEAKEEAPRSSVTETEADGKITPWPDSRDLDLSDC", "assay": "SafetyScan44", "format": "cell-based", "conditions": "10 μM", "protocol": "as §1"}, "PDE4D2": {"biological_target": "T12, PDE4D2 (Homo sapiens, UniProt Q08499)", "T12 construct": "purchased DiscoverX (Eurofins) SafetyScan44", "assay": "SafetyScan44", "format": "cell-based", "conditions": "10 μM; Inhibitor mode", "protocol": "as §1"}, "HTR3A": {"biological_target": "T13, HTR3A (Homo sapiens, UniProt P46098)", "T13 construct": "purchased DiscoverX (Eurofins) SafetyScan44", "T13 sequence (P46098 24-478)": "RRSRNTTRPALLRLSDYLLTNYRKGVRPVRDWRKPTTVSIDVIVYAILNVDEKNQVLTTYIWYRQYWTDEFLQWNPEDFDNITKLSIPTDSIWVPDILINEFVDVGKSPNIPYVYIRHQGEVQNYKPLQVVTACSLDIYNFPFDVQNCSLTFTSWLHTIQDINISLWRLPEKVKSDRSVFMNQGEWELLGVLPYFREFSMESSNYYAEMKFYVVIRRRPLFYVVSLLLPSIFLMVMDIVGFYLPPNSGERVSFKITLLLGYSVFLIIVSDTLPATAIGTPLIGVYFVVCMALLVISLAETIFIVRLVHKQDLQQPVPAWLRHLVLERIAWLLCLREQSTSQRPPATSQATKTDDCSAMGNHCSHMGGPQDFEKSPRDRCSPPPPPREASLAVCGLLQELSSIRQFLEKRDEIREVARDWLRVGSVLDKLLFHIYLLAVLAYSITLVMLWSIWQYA", "assay": "SafetyScan44", "format": "cell-based", "conditions": "10 μM", "protocol": "as §1"}, "DRD1": {"biological_target": "T14, DRD1 (Homo sapiens, UniProt P21728)", "T14 construct": "purchased DiscoverX (Eurofins) SafetyScan44", "T14 sequence (P21728 whole entry)": "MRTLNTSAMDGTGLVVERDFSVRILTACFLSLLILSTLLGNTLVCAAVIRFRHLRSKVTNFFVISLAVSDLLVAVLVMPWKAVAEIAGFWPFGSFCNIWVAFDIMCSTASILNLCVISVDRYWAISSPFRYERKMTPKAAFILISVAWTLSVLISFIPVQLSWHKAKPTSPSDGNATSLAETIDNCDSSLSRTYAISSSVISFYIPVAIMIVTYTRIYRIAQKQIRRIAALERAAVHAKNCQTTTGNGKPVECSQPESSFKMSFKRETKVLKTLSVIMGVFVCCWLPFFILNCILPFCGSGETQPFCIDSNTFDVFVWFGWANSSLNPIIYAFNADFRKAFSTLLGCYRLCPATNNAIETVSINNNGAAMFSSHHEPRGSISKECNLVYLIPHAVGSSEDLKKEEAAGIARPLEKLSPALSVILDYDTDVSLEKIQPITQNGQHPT", "assay": "SafetyScan44", "format": "cell-based", "conditions": "10 μM", "protocol": "as §1"}, "HRH2": {"biological_target": "T15, HRH2 (Homo sapiens, UniProt P25021)", "T15 construct": "purchased DiscoverX (Eurofins) SafetyScan44", "assay": "SafetyScan44", "format": "cell-based", "conditions": "10 μM", "protocol": "as §1"}, "COX2": {"biological_target": "T16, COX2 (Homo sapiens, UniProt P35354)", "T16 construct": "purchased DiscoverX (Eurofins) SafetyScan44", "assay": "SafetyScan44", "format": "cell-based", "conditions": "10 μM; Inhibitor mode", "protocol": "as §1"}, "AR": {"biological_target": "T17, AR (Homo sapiens, UniProt P10275)", "T17 construct": "purchased DiscoverX (Eurofins) SafetyScan44", "T17 sequence (P10275 whole entry)": "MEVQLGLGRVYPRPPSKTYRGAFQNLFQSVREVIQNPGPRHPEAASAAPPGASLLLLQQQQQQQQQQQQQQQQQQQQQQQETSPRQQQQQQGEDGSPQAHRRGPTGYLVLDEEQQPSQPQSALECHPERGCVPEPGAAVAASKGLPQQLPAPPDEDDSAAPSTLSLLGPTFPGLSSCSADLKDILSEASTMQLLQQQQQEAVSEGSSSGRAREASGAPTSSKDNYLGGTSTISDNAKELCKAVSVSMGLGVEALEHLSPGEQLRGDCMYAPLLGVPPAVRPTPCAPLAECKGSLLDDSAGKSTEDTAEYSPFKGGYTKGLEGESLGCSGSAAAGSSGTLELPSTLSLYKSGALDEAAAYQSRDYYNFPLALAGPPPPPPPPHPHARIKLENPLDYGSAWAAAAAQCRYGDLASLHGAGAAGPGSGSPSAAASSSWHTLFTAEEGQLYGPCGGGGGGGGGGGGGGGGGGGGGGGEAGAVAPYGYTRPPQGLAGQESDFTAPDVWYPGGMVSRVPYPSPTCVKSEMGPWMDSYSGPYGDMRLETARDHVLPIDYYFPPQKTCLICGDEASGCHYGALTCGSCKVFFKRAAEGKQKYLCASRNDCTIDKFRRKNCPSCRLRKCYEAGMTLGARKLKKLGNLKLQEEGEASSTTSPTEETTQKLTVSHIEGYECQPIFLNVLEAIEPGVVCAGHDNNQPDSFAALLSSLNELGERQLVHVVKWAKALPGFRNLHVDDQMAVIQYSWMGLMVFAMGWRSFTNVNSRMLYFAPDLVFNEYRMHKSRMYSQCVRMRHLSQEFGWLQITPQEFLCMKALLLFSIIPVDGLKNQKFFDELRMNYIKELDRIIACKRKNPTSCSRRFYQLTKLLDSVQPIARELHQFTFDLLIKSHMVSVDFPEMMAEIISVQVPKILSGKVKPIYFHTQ", "assay": "SafetyScan44", "format": "cell-based", "conditions": "10 μM", "protocol": "as §1"}, "AVPR1A": {"biological_target": "T18, AVPR1A (Homo sapiens, UniProt P37288)", "T18 construct": "purchased DiscoverX (Eurofins) SafetyScan44", "T18 sequence (P37288 whole entry)": "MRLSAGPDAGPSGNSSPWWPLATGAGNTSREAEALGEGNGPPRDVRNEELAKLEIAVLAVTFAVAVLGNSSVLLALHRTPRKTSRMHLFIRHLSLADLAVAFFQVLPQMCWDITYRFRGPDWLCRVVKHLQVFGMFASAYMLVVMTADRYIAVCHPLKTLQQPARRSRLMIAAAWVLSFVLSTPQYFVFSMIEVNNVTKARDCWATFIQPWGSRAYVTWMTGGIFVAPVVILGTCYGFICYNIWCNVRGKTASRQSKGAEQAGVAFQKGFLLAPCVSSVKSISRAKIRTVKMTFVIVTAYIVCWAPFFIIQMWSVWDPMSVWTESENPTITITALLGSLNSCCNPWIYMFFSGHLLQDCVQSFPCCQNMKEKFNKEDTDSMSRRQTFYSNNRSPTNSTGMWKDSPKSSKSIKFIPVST", "assay": "SafetyScan44", "format": "cell-based", "conditions": "10 μM", "protocol": "as §1"}, "CHRM2": {"biological_target": "T19, CHRM2 (Homo sapiens, UniProt P08172)", "T19 construct": "purchased DiscoverX (Eurofins) SafetyScan44", "T19 sequence (P08172 whole entry)": "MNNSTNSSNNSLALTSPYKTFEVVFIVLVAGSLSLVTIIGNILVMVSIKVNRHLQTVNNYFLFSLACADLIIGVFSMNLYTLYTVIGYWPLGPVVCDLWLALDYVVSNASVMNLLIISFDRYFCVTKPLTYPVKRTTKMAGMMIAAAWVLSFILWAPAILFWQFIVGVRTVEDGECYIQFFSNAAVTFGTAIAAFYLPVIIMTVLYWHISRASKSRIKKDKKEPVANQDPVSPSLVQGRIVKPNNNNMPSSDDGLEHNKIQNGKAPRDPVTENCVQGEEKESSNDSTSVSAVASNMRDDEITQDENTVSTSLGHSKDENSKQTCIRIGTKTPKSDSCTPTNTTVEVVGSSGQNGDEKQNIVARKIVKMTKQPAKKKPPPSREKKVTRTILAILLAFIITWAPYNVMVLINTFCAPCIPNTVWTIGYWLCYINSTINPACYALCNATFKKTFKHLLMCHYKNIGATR", "assay": "SafetyScan44", "format": "cell-based", "conditions": "10 μM", "protocol": "as §1"}, "COX1": {"biological_target": "T20, COX1 (Homo sapiens, UniProt P23219)", "T20 construct": "purchased DiscoverX (Eurofins) SafetyScan44", "assay": "SafetyScan44", "format": "cell-based", "conditions": "10 μM; Inhibitor mode", "protocol": "as §1"}, "HTR1A": {"biological_target": "T21, HTR1A (Homo sapiens, UniProt P08908)", "T21 construct": "purchased DiscoverX (Eurofins) SafetyScan44", "T21 sequence (P08908 whole entry)": "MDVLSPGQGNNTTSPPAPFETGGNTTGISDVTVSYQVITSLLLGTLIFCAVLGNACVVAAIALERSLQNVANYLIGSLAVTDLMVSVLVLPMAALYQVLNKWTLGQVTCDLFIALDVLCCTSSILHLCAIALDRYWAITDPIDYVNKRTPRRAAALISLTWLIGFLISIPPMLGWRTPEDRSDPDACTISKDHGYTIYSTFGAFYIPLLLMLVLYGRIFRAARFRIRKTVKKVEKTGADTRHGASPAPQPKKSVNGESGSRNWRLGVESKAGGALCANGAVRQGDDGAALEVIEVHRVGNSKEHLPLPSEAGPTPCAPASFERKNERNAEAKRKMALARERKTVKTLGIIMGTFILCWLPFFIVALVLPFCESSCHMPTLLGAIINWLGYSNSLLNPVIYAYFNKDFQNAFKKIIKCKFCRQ", "assay": "SafetyScan44", "format": "cell-based", "conditions": "10 μM", "protocol": "as §1"}, "NAV1.5": {"biological_target": "T22, NAV1.5 (Homo sapiens, UniProt Q14524)", "T22 construct": "purchased DiscoverX (Eurofins) SafetyScan44", "assay": "SafetyScan44", "format": "cell-based", "conditions": "10 μM; Blocker mode", "protocol": "as §1"}, "ADRB2": {"biological_target": "T23, ADRB2 (Homo sapiens, UniProt P07550)", "T23 construct": "purchased DiscoverX (Eurofins) SafetyScan44", "T23 sequence (P07550 whole entry)": "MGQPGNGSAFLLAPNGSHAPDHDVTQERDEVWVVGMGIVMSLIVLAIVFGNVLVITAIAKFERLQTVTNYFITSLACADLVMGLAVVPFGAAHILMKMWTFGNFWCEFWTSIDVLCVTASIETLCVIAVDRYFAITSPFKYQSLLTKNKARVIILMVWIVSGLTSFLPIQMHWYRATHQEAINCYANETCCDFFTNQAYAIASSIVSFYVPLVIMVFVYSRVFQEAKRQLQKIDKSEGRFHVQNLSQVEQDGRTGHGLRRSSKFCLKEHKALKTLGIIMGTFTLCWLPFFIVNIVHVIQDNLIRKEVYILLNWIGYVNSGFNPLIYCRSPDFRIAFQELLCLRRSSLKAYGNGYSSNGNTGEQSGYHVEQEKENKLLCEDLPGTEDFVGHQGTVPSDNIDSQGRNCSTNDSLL", "assay": "SafetyScan44", "format": "cell-based", "conditions": "10 μM", "protocol": "as §1"}, "AChE": {"biological_target": "T24, AChE (Homo sapiens, UniProt P22303)", "T24 construct": "purchased DiscoverX (Eurofins) SafetyScan44", "assay": "SafetyScan44", "format": "cell-based", "conditions": "10 μM; Inhibitor mode", "protocol": "as §1"}},
  "data": [
    {"smiles": "CC(C)(C)N1CCN(Cc2cc3nc(-c4cncc5[nH]ccc45)cc(N4CCOCC4)n3n2)CC1", "note": "[CPL302-253]", "values": [
      {"measurement": "concentration inducing decrease of Plasminogen Activator Inhibitor-1 expression", "setting": "[1]", "value": "≥ 150", "unit": "nM"},
      {"measurement": "decrease of Plasminogen Activator Inhibitor-1 expression, effect size", "setting": "[1]", "value": "lower than 0.2 log10"},
      {"measurement": "expression of IL-2, IL-6, IL-17 and TNFα in BT system", "setting": "[2]", "value": "inhibits the expression of all of listed markers in BT system"},
      {"measurement": "proliferation of B cells", "setting": "[2]", "value": "blocked proliferation of B cells"},
      {"measurement": "inhibition or activation of the studied pathways in SafetyScan44", "setting": "[3]", "value": "neither inhibits nor activates any of the studied pathways"},
      {"measurement": "% Response ADORA2A Agonist", "setting": "ADORA2A; Agonist mode", "value": -0.8, "unit": "%"},
      {"measurement": "% Response ADORA2A Antagonist", "setting": "ADORA2A; Antagonist mode", "value": 11.7, "unit": "%"},
      {"measurement": "% Response INSR Inhibitor", "setting": "INSR", "value": -6.5, "unit": "%"},
      {"measurement": "% Response DAT Blocker", "setting": "DAT", "value": 56.1, "unit": "%"},
      {"measurement": "% Response HTR1B Agonist", "setting": "HTR1B; Agonist mode", "value": 8.0, "unit": "%"},
      {"measurement": "% Response HTR1B Antagonist", "setting": "HTR1B; Antagonist mode", "value": 0.1, "unit": "%"},
      {"measurement": "% Response GABAA Blocker", "setting": "GABAA; Blocker mode", "value": 1.4, "unit": "%"},
      {"measurement": "% Response GABAA Opener", "setting": "GABAA; Opener mode", "value": -2.3, "unit": "%"},
      {"measurement": "% Response ROCK1 Inhibitor", "setting": "ROCK1", "value": 10.3, "unit": "%"},
      {"measurement": "% Response CAV1.2 Blocker", "setting": "CAV1.2", "value": -1.1, "unit": "%"},
      {"measurement": "% Response NET Blocker", "setting": "NET", "value": 8.5, "unit": "%"},
      {"measurement": "% Response CHRM1 Agonist", "setting": "CHRM1; Agonist mode", "value": 1.2, "unit": "%"},
      {"measurement": "% Response CHRM1 Antagonist", "setting": "CHRM1; Antagonist mode", "value": 48.1, "unit": "%"},
      {"measurement": "% Response LCK Inhibitor", "setting": "LCK", "value": 16.3, "unit": "%"},
      {"measurement": "% Response VEGFR2 Inhibitor", "setting": "VEGFR2", "value": 30.7, "unit": "%"},
      {"measurement": "% Response CNR2 Agonist", "setting": "CNR2; Agonist mode", "value": 16.4, "unit": "%"},
      {"measurement": "% Response CNR2 Antagonist", "setting": "CNR2; Antagonist mode", "value": 1.1, "unit": "%"},
      {"measurement": "% Response PDE4D2 Inhibitor", "setting": "PDE4D2", "value": 2.0, "unit": "%"},
      {"measurement": "% Response HTR3A Blocker", "setting": "HTR3A; Blocker mode", "value": 19.5, "unit": "%"},
      {"measurement": "% Response HTR3A Opener", "setting": "HTR3A; Opener mode", "value": -0.8, "unit": "%"},
      {"measurement": "% Response DRD1 Agonist", "setting": "DRD1; Agonist mode", "value": 1.1, "unit": "%"},
      {"measurement": "% Response DRD1 Antagonist", "setting": "DRD1; Antagonist mode", "value": 9.3, "unit": "%"},
      {"measurement": "% Response HRH2 Agonist", "setting": "HRH2; Agonist mode", "value": 0.6, "unit": "%"},
      {"measurement": "% Response HRH2 Antagonist", "setting": "HRH2; Antagonist mode", "value": 4.2, "unit": "%"},
      {"measurement": "% Response COX2 Inhibitor", "setting": "COX2", "value": 11.9, "unit": "%"},
      {"measurement": "% Response AR Agonist", "setting": "AR; Agonist mode", "value": -0.7, "unit": "%"},
      {"measurement": "% Response AR Antagonist", "setting": "AR; Antagonist mode", "value": 8.5, "unit": "%"},
      {"measurement": "% Response AVPR1A Agonist", "setting": "AVPR1A; Agonist mode", "value": -3.2, "unit": "%"},
      {"measurement": "% Response AVPR1A Antagonist", "setting": "AVPR1A; Antagonist mode", "value": -5.2, "unit": "%"},
      {"measurement": "% Response CHRM2 Agonist", "setting": "CHRM2; Agonist mode", "value": 8.2, "unit": "%"},
      {"measurement": "% Response CHRM2 Antagonist", "setting": "CHRM2; Antagonist mode", "value": 35.2, "unit": "%"},
      {"measurement": "% Response COX1 Inhibitor", "setting": "COX1", "value": 4.7, "unit": "%"},
      {"measurement": "% Response HTR1A Agonist", "setting": "HTR1A; Agonist mode", "value": 5.6, "unit": "%"},
      {"measurement": "% Response HTR1A Antagonist", "setting": "HTR1A; Antagonist mode", "value": -4.8, "unit": "%"},
      {"measurement": "% Response NAV1.5 Blocker", "setting": "NAV1.5", "value": 9.7, "unit": "%"},
      {"measurement": "% Response ADRB2 Agonist", "setting": "ADRB2; Agonist mode", "value": 0.5, "unit": "%"},
      {"measurement": "% Response ADRB2 Antagonist", "setting": "ADRB2; Antagonist mode", "value": 17.7, "unit": "%"},
      {"measurement": "% Response AChE Inhibitor", "setting": "AChE", "value": 27.8, "unit": "%"}
    ]}
  ]
}
